Columns and labels:
Experiment in all cases: Challenge test in broth
Assay type in all cases: cell-based
Conditions in all cases: Tryptic Soy Broth, blend added at 0.5% v/v
[1] = tested on: Candida albicans (ATCC 10231)
Source text: (§1) A challenge protocol similar to the CTFA method was followed to assess efficacy against a broad spectrum of microorganisms. The four separate inocula were: Staphylococcus aureus (ATCC 6538), Pseudomonas aeruginosa (ATCC 9027) and Enterobacter gergoviae (cosmetic isolate), Candida albicans (ATCC 10231), and mixed molds Aspergillus niger (ATCC 6275) and a Penicillium sp. cosmetic isolate. Tubes containing 20 milliliters of broth were inoculated with approximately 1,500,000 bacteria per gram, 50,000 yeast cells per gram or 100,000 mold spores per gram. Individual challenges were prepared from overnight slants of bacteria and yeast cultures and from heavily sporulating mold cultures, 7 to 10 days old. All samples were plated quantitatively for viable organisms after 24 hours and 8 days.

[2] = tested on: Pseudomonas aeruginosa (ATCC 9027) and Enterobacter gergoviae (cosmetic isolate)
Source text: as §1

[3] = tested on: Staphylococcus aureus (ATCC 6538)
Source text: as §1

[4] = tested on: mixed molds Aspergillus niger (ATCC 6275) and a Penicillium sp. cosmetic isolate
Source text: as §1

OCCOc1ccccc1 [2-Phenoxyethanol]
Colony Forming Units per Milliliter of Broth (CFU/ml) after 8 Days [1]: 4.0 × 10^3 CFU/ml
Colony Forming Units per Milliliter of Broth (CFU/ml) after 8 Days [2]: 9.1 × 10^7 CFU/ml
Colony Forming Units per Milliliter of Broth (CFU/ml) after 8 Days [3]: 3.2 × 10^8 CFU/ml
Colony Forming Units per Milliliter of Broth (CFU/ml) after 8 Days [4]: 5.8 × 10^2 CFU/ml

From patent publication US7854940B2, “Broad spectrum preservation blends” (Arch Chemicals, Inc., priority 2004, dated 2010)
